Where two headings read alike, the source gives them in different places.
Legend:
Assay type in all cases: in vivo
[1] = test system: Eleusine indica (ELEIN); assay: Post-emergence action against weeds, greenhouse pot test, visual rating: Eleusine indica; conditions: Eleusine indica, post-emergence; for pest or weed control at 3 g/ha: 3 g a.i./ha; for pest or weed control at 0.4 g/ha: 0.4 g a.i./ha
Protocol: (§1) When the observed efficacies already exceed the formal sum total of the values of the tests with individual applications, they also exceed the expected value according to Colby, which is calculated using the formula below and is likewise regarded as an indication of synergism (cf. S. R. Colby; in Weeds 15 (1967) pp. 20 to 22):
(§2) where: • A=efficacy of the active ingredient (A) in % at an application rate of a [g a.i./ha]; • B=efficacy of the active ingredient (B) in % at an application rate of b [g a.i./ha]; • E^C=expected value of the effect of the combination (A)+(B) in % at the combined application rate a+b [g a.i./ha].
(§3) The observed values (E^A) from the experiments, given suitable low dosages, show an effect of the combinations exceeding the expected values according to Colby (E^C) (Δ).
(§4) Seeds of mono- and dicotyledonous weeds were placed in sandy loam in pots, covered with soil and grown in a greenhouse under good growth conditions (temperature, air humidity, water supply). Two to three weeks after sowing, the test plants were treated at the two- to four-leaf stage with the compositions of the invention. The compositions of the invention, formulated as spray powders or as emulsion concentrates, were sprayed onto the green parts of the plant in various dosages with an application rate equivalent to […] of water. After the test plants had been kept in the greenhouse under optimum growth conditions for 3 weeks, the activity of the preparations was rated visually in comparison to untreated controls.
(§5) 100% efficacy means complete control of the particular weed tested.
(§6) 0% efficacy means zero control of the particular weed tested.
(§7) Expected values according to Colby are reported under E.
(§8) The exceedance of the expected value E is given as Δ (=synergistic effect).
(§9) The rating period is reported in days after application (DAT).

[2] = test system: Lolium rigidum (LOLRI); assay: Post-emergence action against weeds, greenhouse pot test, visual rating: Lolium rigidum
[3] = test system: Centaurea cyanus (CENCY); assay: Post-emergence action against weeds, greenhouse pot test, visual rating: Centaurea cyanus
Protocol: as §1, §2, §3, §4, §5, §6, §7, §8, §9

[4] = test system: Brachiaria platyfylla (BRAPP); assay: Post-emergence action against weeds, greenhouse pot test, visual rating: Brachiaria platyfylla; conditions: post-emergence; for pest or weed control at 3 g/ha: 3 g a.i./ha; for pest or weed control at 0.4 g/ha: 0.4 g a.i./ha
Protocol: as §1, §2, §3, §4, §5, §6, §7, §8, §9

[5] = test system: Sorghum halepense (SORHA); assay: Post-emergence action against weeds, greenhouse pot test, visual rating: Sorghum halepense
Protocol: as §1, §2, §3, §4, §5, §6, §7, §8, §9

[6] = test system: Centaurea cyanus (CENCY); assay: Post-emergence action against weeds, greenhouse pot test, visual rating: Centaurea cyanus; conditions: 240 h, read-out: Herbicidal effect [%] on CENCY 10 DAT
[7] = test system: Pharbitis purpurea (PHBPU); assay: Post-emergence action against weeds, greenhouse pot test, visual rating: Pharbitis purpurea
Protocol: as §1, §2, §3, §4, §5, §6, §7, §8, §9

[8] = test system: Bidens pilosa (BIDPI); assay: Post-emergence action against weeds, greenhouse pot test, visual rating: Bidens pilosa
[9] = test system: Kochia scoparia (KCHSC); assay: Post-emergence action against weeds, greenhouse pot test, visual rating: Kochia scoparia
[10] = test system: Avena fatua (AVEFA); assay: Post-emergence action against weeds, greenhouse pot test, visual rating: Avena fatua
[11] = test system: Echinochloa crus-galli (ECHCG); assay: Post-emergence action against weeds, greenhouse pot test, visual rating: Echinochloa crus-galli; conditions: 1 g a.i./ha
[12] = 240 h, read-out: Herbicidal effect [%] on ELEIN 10 DAT
[13] = 504 h, read-out: Herbicidal effect [%] on ELEIN 21 DAT
[14] = 240 h, read-out: Herbicidal effect [%] on BRAPP 10 DAT
[15] = 504 h, read-out: Herbicidal effect [%] on BRAPP 21 DAT

`CS(=O)(=O)c1ccc(C(=O)C2C(=O)CCCC2=O)c(Cl)c1COCC(F)(F)F` [Tembotrione, tembotrione] showed a pest or weed control at 3 g/ha [1, 12] of 60%, a pest or weed control at 3 g/ha [1, 13] of 40% and a pest or weed control at 3 g/ha ([2]; Lolium rigidum, 504 h, 3 g a.i./ha, 21 DAT, read-out: Herbicidal effect [%] on LOLRI 21 DAT) of 20%. The “Herbicidal effect [%] on CENCY 21 DAT” value ([3]; 3 g a.i./ha) was 30%, the pest or weed control at 3 g/ha [4, 14] was 40% and the pest or weed control at 3 g/ha [4, 15] was 20%. The “Herbicidal effect [%] on SORHA 10 DAT” value ([5]; 3 g a.i./ha, 10 DAT) was 80%, the “Herbicidal effect [%] on SORHA 21 DAT” value ([5]; 3 g a.i./ha) was 20% and the pest or weed control at 3 g/ha ([6]; 3 g a.i./ha) was 40%. For the same compound, the “Herbicidal effect [%] on PHBPU 21 DAT” value ([7]; 3 g a.i./ha) was 30%, the “Herbicidal effect [%] on BIDPI 21 DAT” value ([8]; 3 g a.i./ha) was 30% and the “Herbicidal effect [%] on KCHSC 10 DAT” value ([9]; 3 g a.i./ha) was 20%. For the same compound, the pest or weed control at 3 g/ha ([9]; Bassia scoparia, post-emergence, 504 h, 3 g a.i./ha, read-out: Herbicidal effect [%] on KCHSC 21 DAT) was 10%.

In the case of `N#Cc1cc(Br)c(O)c(Br)c1` [Bromoxynil, bromoxynil], the pest or weed control at 80 g/ha ([1]; 240 h, 80 g a.i./ha, read-out: Herbicidal effect [%] on ELEIN 10 DAT) is reported as 0%, the pest or weed control at 80 g/ha ([10]; Avena fatua, 240 h, 10 DAT, 80 g a.i./ha, read-out: Herbicidal effect [%] on AVEFA 10 DAT) is reported as 0% and the pest or weed control at 80 g/ha ([6]; 80 g a.i./ha) is reported as 30%. The “Herbicidal effect [%] on PHBPU 10 DAT” value ([7]; 80 g a.i./ha) was 50% and the “Herbicidal effect [%] on BIDPI 10 DAT” value ([8]; 80 g a.i./ha) was 50%.

`CSc1nnc(C(C)(C)C)c(=O)n1N` [Metribuzin, metribuzin] gave a pest or weed control at 15 g/ha ([1]; 504 h, 15 g a.i./ha, read-out: Herbicidal effect [%] on ELEIN 21 DAT) of 10%, a pest or weed control at 15 g/ha ([2]; Lolium rigidum, 504 h, 15 g a.i./ha, 21 DAT, read-out: Herbicidal effect [%] on LOLRI 21 DAT) of 0% and a pest or weed control at 15 g/ha ([6]; 15 g a.i./ha) of 0%. For the same compound, the “Herbicidal effect [%] on PHBPU 10 DAT” value ([7]; 15 g a.i./ha) was 0%.

For `CCOC(=O)COc1cc(-c2nn(C)c(OC(F)F)c2Cl)c(F)cc1Cl` [Pyraflufen-ethyl, pyraflufen-ethyl], the pest or weed control at […] [1, 13] was 0%, the “Herbicidal effect [%] on CENCY 21 DAT” value ([3]; 7.5 g a.i./ha) was 88% and the “Herbicidal effect [%] on SORHA 21 DAT” value ([5]; 7.5 g a.i./ha) was 10%. The pest or weed control at […] [6] was 88%, the “Herbicidal effect [%] on BIDPI 10 DAT” value ([8]; 7.5 g a.i./ha) was 88% and the “Herbicidal effect [%] on BIDPI 21 DAT” value ([8]; 7.5 g a.i./ha) was 80%.

In the case of `COc1cc(OC)nc(NC(=O)NS(=O)(=O)c2cc(NC=O)ccc2C(=O)N(C)C)n1` [Foramsulfuron, foramsulfuron], the “Herbicidal effect [%] on ECHCG 10 DAT” value [11] is reported as 70%, the “Herbicidal effect [%] on AVEFA 21 DAT” value ([10]; 21 DAT, 1 g a.i./ha) is reported as 70% and the pest or weed control at 1 g/ha ([10]; Avena fatua, 240 h, 10 DAT, 1 g a.i./ha, read-out: Herbicidal effect [%] on AVEFA 10 DAT) is reported as 60%. For the same compound, the “Herbicidal effect [%] on SORHA 21 DAT” value ([5]; 1 g a.i./ha) was 20%, the pest or weed control at 1 g/ha ([6]; 1 g a.i./ha) was 30% and the “Herbicidal effect [%] on BIDPI 10 DAT” value ([8]; 1 g a.i./ha) was 20%. For the same compound, the “Herbicidal effect [%] on BIDPI 21 DAT” value ([8]; 1 g a.i./ha) was 30% and the pest or weed control at 1 g/ha ([9]; Bassia scoparia, post-emergence, 504 h, 1 g a.i./ha, read-out: Herbicidal effect [%] on KCHSC 21 DAT) was 20%.

`CCC(CC)Nc1c([N+](=O)[O-])cc(C)c(C)c1[N+](=O)[O-]` [Pendimethalin, pendimethalin] showed a pest or weed control at 100 g/ha ([1]; 504 h, 100 g a.i./ha, read-out: Herbicidal effect [%] on ELEIN 21 DAT) of 0%, a pest or weed control at 100 g/ha ([6]; 100 g a.i./ha) of 0% and a pest or weed control at 100 g/ha ([9]; Bassia scoparia, post-emergence, 504 h, 100 g a.i./ha, read-out: Herbicidal effect [%] on KCHSC 21 DAT) of 10%.

For `CC(C)N(C)S(=O)(=O)NC(=O)c1cc(-n2c(=O)cc(C(F)(F)F)n(C)c2=O)c(F)cc1Cl` [Saflufenacil, saflufenacil], the pest or weed control at 0.4 g/ha [1, 12] was 30%, the pest or weed control at 0.4 g/ha [1, 13] was 0% and the “Herbicidal effect [%] on LOLRI 10 DAT” value ([2]; 0.4 g a.i./ha, 10 DAT) was 10%. The pest or weed control at 0.4 g/ha ([2]; Lolium rigidum, 504 h, 0.4 g a.i./ha, 21 DAT, read-out: Herbicidal effect [%] on LOLRI 21 DAT) was 0%, the pest or weed control at 0.4 g/ha ([10]; Avena fatua, 240 h, 10 DAT, 0.4 g a.i./ha, read-out: Herbicidal effect [%] on AVEFA 10 DAT) was 10% and the “Herbicidal effect [%] on CENCY 21 DAT” value ([3]; 0.4 g a.i./ha) was 30%. It also gave a pest or weed control at 0.4 g/ha [4, 14] of 10%, a pest or weed control at 0.4 g/ha [4, 15] of 0% and a pest or weed control at 0.4 g/ha ([6]; 0.4 g a.i./ha) of 40%. The “Herbicidal effect [%] on PHBPU 21 DAT” value ([7]; 0.4 g a.i./ha) was 80%, the “Herbicidal effect [%] on KCHSC 10 DAT” value ([9]; 0.4 g a.i./ha) was 10% and the pest or weed control at 0.4 g/ha ([9]; Bassia scoparia, post-emergence, 504 h, 0.4 g a.i./ha, read-out: Herbicidal effect [%] on KCHSC 21 DAT) was 10%.

With `CS(=O)(=O)NC(=O)c1cc(Oc2ccc(C(F)(F)F)cc2Cl)ccc1[N+](=O)[O-]` [Fomesafen, fomesafen] the pest or weed control at […] ([1]; 504 h, 1.5 g a.i./ha, read-out: Herbicidal effect [%] on ELEIN 21 DAT) was 0%, the pest or weed control at […] ([2]; Lolium rigidum, 504 h, 1.5 g a.i./ha, 21 DAT, read-out: Herbicidal effect [%] on LOLRI 21 DAT) was 0% and the “Herbicidal effect [%] on CENCY 21 DAT” value ([3]; 1.5 g a.i./ha) was 30%. For the same compound, the pest or weed control at […] ([4]; 504 h, 1.5 g a.i./ha, read-out: Herbicidal effect [%] on BRAPP 21 DAT) was 0%, the pest or weed control at […] ([6]; 1.5 g a.i./ha) was 20% and the “Herbicidal effect [%] on BIDPI 10 DAT” value ([8]; 1.5 g a.i./ha) was 30%. For the same compound, the “Herbicidal effect [%] on BIDPI 21 DAT” value ([8]; 1.5 g a.i./ha) was 20%, the “Herbicidal effect [%] on KCHSC 10 DAT” value ([9]; 1.5 g a.i./ha) was 10% and the pest or weed control at […] ([9]; Bassia scoparia, post-emergence, 504 h, 1.5 g a.i./ha, read-out: Herbicidal effect [%] on KCHSC 21 DAT) was 0%.
